{
  "source": "ChEMBL document CHEMBL2046425",
  "about": "“Neamphamide B, new cyclic depsipeptide, as an anti-dormant mycobacterial substance from a Japanese marine sponge of Neamphius sp” (2012)",
  "key": {"[1]": {"tested_on": "Mycobacterium tuberculosis", "assay": "Antimicrobial activity against Mycobacterium bovis BCG under dormancy-inducing hypoxic condition for 14 days by MTT assay", "type": "functional", "conditions": "variant bovis BCG, 336 h"}, "[2]": {"tested_on": "Mycobacterium tuberculosis", "assay": "Antimicrobial activity against Mycobacterium bovis BCG under aerobic condition for 7 days by MTT assay", "type": "functional", "conditions": "variant bovis BCG, 168 h"}},
  "data": [
    {"smiles": "COC(c1ccc(O)cc1)C1NC(=O)[C@H](CCC(N)=O)N(C)C(=O)[C@H](CC(C)C)NC(=O)[C@@H](CCCNC(=N)N)NC(=O)[C@@H]([C@@H](C)O)NC(=O)[C@H](NC(=O)C(NC(=O)[C@H](O)[C@H](O)[C@H](CCCNC(=N)N)NC(=O)[C@@H](CC(N)=O)NC(=O)C(C)C(O)C(C)CC(C)C)C(C)C(C)C(N)=O)[C@@H](C)OC(=O)[C@@H]2CCCCN2C1=O", "note": "(some centres not stated) [NEAMPHAMIDE B]", "values": [
      {"measurement": "MIC", "setting": "[1]", "value": 12.5, "unit": "µg/mL"},
      {"measurement": "MIC", "setting": "[2]", "value": 6.25, "unit": "µg/mL"}
    ]}
  ]
}
